Earlier results as cited in patent publication US12097195B2, “Pharmaceutical composition containing alkynyl compound and preparation method and application thereof” (ASCENTAGE PHARMA (SUZHOU) CO., LTD., priority 2019, dated 2024).

## Cc1ccc(C(=O)Nc2ccc(CN3CCN(C)CC3)c(C(F)(F)F)c2)cc1C#Cc1cnc2[nH]ncc2c1 [alknyl compound, 3-((1H-pyrazolo[3,4-b]pyridin-5-yl)ethynyl)-4-methyl-N-(4-((4-methylpiperazin-1-yl)methyl)-3-(trifluoromethyl)phenyl)-benzamide]
Chronic leukemia K562
  inhibition rate: very good inhibition rate
Acute leukemia MOLT
  inhibition rate: very good inhibition rate
